Laboratory results published in PubChem BioAssay AID1419 (Emory University Molecular Libraries Screening Center, 2008).
Active and inactive are the calls of the source. How the calls were made is not given here.

Experiment: EBV protein-peptide binding inhibitors, dose response, biochemical, fluorescence polarization (AID 1419)
Conditions: cell-free protein-peptide binding, 2 h; for fold change: measured here: P channel fold over control, at 54 µM

Compound	IC50	fold change
CCCCC1=CC2=C(c3ccco3)C(=O)C(C)(OC(=O)c3ccc(OC)cc3)C(=O)C2=CN1Cc1ccccc1 (stereo not drawn)	> 54 µM (inactive)	1.7
CCO[C@H]1OC(C(=O)N2CCCCCCC2)=C[C@@H](c2ccc(C(F)(F)F)cc2)[C@@H]1CCCO	> 54 µM (inactive)	0.95
NC(=O)c1c(NC(=O)CSc2nnc(-c3ccco3)n2-c2ccccc2)sc2c1CCC2	46 µM (inactive)	0.977
CC(C)c1nnc(N2C(=O)C(O)=C(C(=O)c3cccs3)C2c2ccccc2)s1 (stereo not drawn)	< 0.42 µM	4.97
O=C(c1ccccc1)c1ccc(O)cc1O	< 0.42 µM	48.2
CCC(C)NC(=O)c1ccc(CSCc2cccc(F)c2)o1 (stereo not drawn)	> 54 µM (inactive)	1.08
CCCN(CCC)S(=O)(=O)c1ccc(C(=O)OCCN2C(=O)c3cccc4c(N5CCOCC5)ccc(c34)C2=O)cc1	1.5 µM	96.6
N#Cc1cc(C(=O)c2ccccc2O)cn(-c2nccs2)c1=O	5.3 µM	14.2
Cc1ccc2nc(SCC(=O)Nc3ccccc3N3CCOCC3)c(C#N)cc2c1	> 54 µM (inactive)	1.02
CC[C@@H](CO)NC(=O)[C@@H]1C=C2c3cccc4c3c(cn4C)C[C@H]2N(C)C1	> 54 µM (inactive)	1.44
Cc1ccc(CNC(=O)c2ccc(-n3cccc3)cc2)cc1	> 54 µM (inactive)	1.15
Cc1cc(Br)c2nc3c(c(C(=O)O)c2c1)CCCCC3	> 54 µM (inactive)	1.06
COc1ccc2nc(N3CCC(C)CC3)c(C#N)cc2c1	9.17 µM	1.94
COc1ccccc1NC(=O)/C(C#N)=C/c1cc([N+](=O)[O-])ccc1N1CCCC1	4.7 µM	60.1
O=C(Nc1ccncc1)Nc1ccc(F)cc1F	> 54 µM (inactive)	1.04
CC(C)OC(=O)CC(=O)c1sc2nc3c(cc2c1N)CN(C)CC3	> 54 µM (inactive)	1.29
CN(C)c1ccc(/C=C2\CCC/C(=C\c3ccccc3)C2=O)cc1	14.5 µM	10.6
CCOCCCNc1nc2c(C)cccn2c(=O)c1/C=C1\SC(=S)N(C(C)CC)C1=O (stereo not drawn)	13.2 µM	6.84
N#C/C(=C\C1=C(N2CCOCC2)C(=C\c2ccccc2)/CC1)C(=O)Nc1ccccc1F	1.23 µM	2.94
CCOc1ccc(C2CC(c3c(O)c4ccccc4oc3=O)=NN2c2ccccc2)cc1OC (stereo not drawn)	2.06 µM	49.3
N=C1S/C(=C\c2ccc(-c3cccc(Cl)c3)o2)C(=O)N1c1nccs1	5.78 µM	2
COc1ccc(NC(=O)Cn2ncc(Cl)c(Cl)c2=O)cc1S(=O)(=O)N1CCOCC1	> 54 µM (inactive)	0.96
CCOC(=O)c1cc2n(c1N)-c1ccccc1C2=O	< 0.42 µM	104
Cc1cc(=O)oc(C)c1C(=O)Nc1ccc2ncccc2c1	2.96 µM	5.89
COc1ccc(-n2c(C)cc(/C=C3\SC(=S)N(Cc4ccco4)C3=O)c2C)cc1	7.24 µM	5.18
O=C(c1ccco1)[C@@H]1[C@@H]2C(=O)N(c3ccc(F)cc3)C(=O)[C@@H]2C2c3ccccc3C=CN21 (stereo partly drawn)	6.26 µM	2.53
O=C(C1=NN(c2ccccc2)C2C(=O)N(c3ccc(Cl)cc3)C(=O)C12)c1ccccc1 (stereo not drawn)	> 54 µM (inactive)	5.95

Compound	IC50	fold change
COC(=O)c1ccc2c(c1)SC1=C(CCCC1=O)N2	1.44 µM	3.08
O=C1c2cccc3c([N+](=O)[O-])ccc(c23)C(=O)N1CC1CCCO1 (stereo not drawn)	13.8 µM	2.37
COc1nc(NCCC2=CCCCC2)nc(OC)n1	> 54 µM (inactive)	1
COC(=O)c1ccccc1NC(=O)Nc1ncccc1C	> 54 µM (inactive)	0.937
O=S(=O)(Nc1ccc2c(c1)OCCO2)c1cccc2cccnc12	> 54 µM (inactive)	0.963
Cc1nnc(N2C(=O)C(O)=C(C(=O)c3ccco3)C2c2ccc(C(C)C)cc2)s1 (stereo not drawn)	2.2 µM	3.11
Cc1ccc(OCCn2c(C3CC(=O)N(Cc4ccccc4)C3)nc3ccccc32)cc1 (stereo not drawn)	> 54 µM (inactive)	1.15
CCn1c(SCc2ccc(C(=O)Nc3nccs3)cc2)nnc1-c1ccc(N)cc1	> 54 µM (inactive)	0.973
COC(=O)C1C=C2c3cccc4[nH]cc(c34)CC2N(C)C1 (stereo not drawn)	1.66 µM	6.81
CN(C)c1ccc(/C=C2\SC(=O)N(CC(O)Cn3c4ccccc4c4ccccc43)C2=O)cc1 (stereo not drawn)	2.46 µM	10.3
CN1CC=C2C(C#N)=C(N)C(C#N)(C#N)C(c3cccc(Cl)c3Cl)C2C1 (stereo not drawn)	1.44 µM	7.33
CCCC(=O)NC(Oc1ccc(C(C)=O)cc1)C(Cl)(Cl)Cl (stereo not drawn)	> 54 µM (inactive)	0.993
COC(=O)CCCC1=CC2=CC(=O)C(C)(OC(=O)c3cccs3)C(=O)C2=CN1c1cccc(C#N)c1 (stereo not drawn)	> 54 µM (inactive)	1.49
O=C(COc1ccc(/C=N/NC(=O)c2ccc(O)cc2)cc1)Nc1ccc([N+](=O)[O-])cc1	2.97 µM	0.957
CNC(=S)NN(c1ccccc1)c1ccccc1	> 54 µM (inactive)	1.01
CN1C(=O)/C(=C\N2CCc3ccccc32)C(=O)NC1=S	> 54 µM (inactive)	1.14
COc1ccc(-c2csc(NC(=O)CSc3nc(C)nc4sc(C(=O)O)c(C)c34)n2)cc1	> 54 µM (inactive)	0.987
O=c1[nH]c(=O)n(Cc2ccccc2Cl)c(O)c1/C=C1/C=CC=N1	> 54 µM (inactive)	1.75
CCOC(=O)c1ccc2c(c1)C1C=CCC1C(C(=O)O)N2 (stereo not drawn)	4.11 µM	1.2
COc1cc([N+](=O)[O-])ccc1-c1ccc(/C=N/NC(=O)c2ccccc2O)o1	> 54 µM (inactive)	0.5
O=C(OCCN1C(=O)c2cccc3c(N4CCOCC4)ccc(c23)C1=O)c1ccccc1Cl	2.87 µM	65.4
CC1CCc2c(sc3nc(CN4CCOCC4)nc(NS(=O)(=O)c4cccc([N+](=O)[O-])c4)c23)C1 (stereo not drawn)	> 54 µM (inactive)	1.13
CC(C)(C)c1cc[n+](-c2[nH]c(=O)sc2/C=N/NC([S-])=Nc2ccccc2)cc1	< 0.42 µM	13.6
CCOc1ccc(-n2c(O)c(C=Nc3ccc(N(CC)CC)cc3)c(=O)[nH]c2=O)cc1	7.18 µM	9.37
O=C(N/N=C/c1ccc(Cl)cc1)c1nc2ccc([N+](=O)[O-])cc2c(=O)[nH]1	> 54 µM (inactive)	1.04
N#C/C(=C(/O)c1ccc(-c2cccc([N+](=O)[O-])c2)o1)c1nc2ccccc2s1	7.24 µM	1.09
Cc1cc2nc3c(=O)n(C4CCCCC4)c(=O)[nH]c3nc2cc1N	< 0.42 µM	132

Compound	IC50	fold change
COc1ccc(Cc2nnc(NC(=O)Cc3cccs3)s2)cc1	> 54 µM (inactive)	1.04
COc1ccc(C(=O)c2sc3nc(C)cc(-c4cccs4)c3c2N)cc1	10.9 µM	10.2
COc1ccc(NC(=O)NC(=O)c2cc(OCC(F)(F)F)ccc2OCC(F)(F)F)cc1	> 54 µM (inactive)	0.943
Cc1cc(=O)oc2cc(OCC(=O)N/N=C/c3cc([N+](=O)[O-])ccc3O)ccc12	4.65 µM	1
CN1CCN(C2=Nc3c(Cl)cc(Cl)c4cccc2c34)CC1	9.23 µM	3.09
Cc1cc(C)c[n+](-c2nc3ccccc3nc2[N-]S(=O)(=O)c2ccc(Br)s2)c1	7.26 µM	3.69
CCCNC(=O)Cn1c(=O)/c(=C\c2ccc(-c3cccc([N+](=O)[O-])c3)o2)s/c1=C\C(=O)C(C)(C)C	1.02 µM	8.62
Cc1oc2cc(O)ccc2c(=O)c1-c1nncn1-c1ccccc1	0.46 µM	10.9
COc1ccc(-n2c(N)c(C#N)c3ccc([N+](=O)[O-])cc3c2=O)cc1	> 54 µM (inactive)	1.45
CSC1=NSC2=NC(=O)/C(=C/c3coc4ccc(O)cc4c3=O)C(=N)N12	2.5 µM	63.6
Cc1ccc(N=Nc2c(O)n(CN3CCOCC3)c3ccccc23)cc1	2.43 µM	10.9
c1ccc(-c2ccnc3nc(N4CCN(c5ccccc5)CC4)nn23)cc1	> 54 µM (inactive)	0.987
Cc1ccccc1NC(=O)CSc1ccsc1[N+](=O)[O-]	15.2 µM	1.04
COc1ccc2nc(N3CCCC(O)C3)c(C#N)cc2c1 (stereo not drawn)	14.6 µM	2.78
CCc1cc[n+](-c2nc3ccccc3nc2[N-]S(=O)(=O)c2ccc(Br)s2)cc1	3.71 µM	3.49
COc1cc(/C=C2\SC(=O)N(c3ccc(Cl)cc3)C2=O)cc([N+](=O)[O-])c1O	4.58 µM	1.13
Cc1cc(N(CCCl)CCCl)ccc1/C=N/NC(=O)c1ccco1	> 54 µM (inactive)	1.06
S=C(Nc1ccc2nc(-c3ccccn3)c(-c3ccccn3)nc2c1)N1CCCCC1	> 54 µM (inactive)	1.3
Nc1c(C(=O)NC2CC2)sc2nc3c(c(-c4ccco4)c12)CC/C3=C/c1ccco1	1.32 µM	3.52
Nc1ccc(O)c2c1C(=O)c1ccccc1C2=O	3.1 µM	2.55
O=C(CSc1ccsc1[N+](=O)[O-])Nc1cccc(F)c1	> 54 µM (inactive)	1.11
O=c1[nH]c2cc3c(cc2cc1CN(Cc1nnnn1CC1CCCO1)C1CCCCC1)OCO3 (stereo not drawn)	51.6 µM (inactive)	1.73
N#Cc1c(C#N)c(O)c2ccccc2c1O	4.02 µM	3.34
C(=N\N1CCOCC1)/c1nc(-c2ccccc2)n2ccccc12	26.6 µM	4.71
Cc1ccsc1C1C=C(c2cccc(Br)c2)Nc2ncnn21 (stereo not drawn)	1.75 µM	3.13
